What is called pIC50 is the IC50 on a negative log10 scale, so that one unit is a factor of ten.

Among the data in PubChem BioAssay AID1745860 are IC50 values, retold here.

This assay concerns the target Sodium-dependent noradrenaline transporter (Homo sapiens) (UniProt P23975). The experiment in a line: SLC6A2 noradrenaline transporter inhibitors, dose response, HEK293 JumpIn overexpressing cells, impedance (AID 1745860). The note with it: HEK293 JumpIn SLC6A2 OE, impedance TRACT.

pIC50: −log10 of the molar value.

Sequence of Sodium-dependent noradrenaline transporter (Homo sapiens) (P23975 whole entry, looked up): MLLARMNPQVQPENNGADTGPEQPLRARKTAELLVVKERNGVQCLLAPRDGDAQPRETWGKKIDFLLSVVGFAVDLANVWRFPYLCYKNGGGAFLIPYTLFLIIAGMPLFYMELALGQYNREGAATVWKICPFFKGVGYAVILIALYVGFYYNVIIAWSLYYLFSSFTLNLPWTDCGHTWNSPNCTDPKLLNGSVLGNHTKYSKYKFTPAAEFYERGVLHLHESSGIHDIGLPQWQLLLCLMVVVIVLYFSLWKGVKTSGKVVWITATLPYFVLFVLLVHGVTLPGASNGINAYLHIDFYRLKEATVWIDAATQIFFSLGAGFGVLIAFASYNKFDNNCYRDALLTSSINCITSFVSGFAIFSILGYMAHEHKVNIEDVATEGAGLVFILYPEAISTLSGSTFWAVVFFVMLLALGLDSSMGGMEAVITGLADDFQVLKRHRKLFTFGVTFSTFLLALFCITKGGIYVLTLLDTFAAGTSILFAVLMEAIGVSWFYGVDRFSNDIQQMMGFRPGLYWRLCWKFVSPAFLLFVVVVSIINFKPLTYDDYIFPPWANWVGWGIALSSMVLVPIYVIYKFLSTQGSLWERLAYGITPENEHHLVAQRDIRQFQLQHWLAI

Take `CNC[C@H](O)c1ccc(O)c(O)c1`: the negative logarithm of the IC50 (pIC50) is 5.40.
